Source: patent US20250170248A1, “SMARCA DEGRADERS AND USES THEREOF” (Kymera Therapeutics, Inc., priority 2021, published 2025)

Legend:
Assay type in all cases: cell-based
[1] = molecular target: T1, SMARCA4 (Homo sapiens, UniProt P51532); assay: SMARCA4 Western blot degradation in MV4-11 cells; details: 24 h; for Dmax: MV4-11, MV4-11 cells, read-out: SMARCA4 MSD MV411 degradation 24 h: average Dmax %; for DC50: MV4-11 cells, read-out: SMARCA4 MSD MV411 degradation 24 h: Mean external-Abs DC50
T1 construct: SMARCA2/SMARCA4 protein degradation selectivity in MV4-11 cells; endogenous in cells; host or cells: MV4-11
T1 sequence (P51532 whole entry): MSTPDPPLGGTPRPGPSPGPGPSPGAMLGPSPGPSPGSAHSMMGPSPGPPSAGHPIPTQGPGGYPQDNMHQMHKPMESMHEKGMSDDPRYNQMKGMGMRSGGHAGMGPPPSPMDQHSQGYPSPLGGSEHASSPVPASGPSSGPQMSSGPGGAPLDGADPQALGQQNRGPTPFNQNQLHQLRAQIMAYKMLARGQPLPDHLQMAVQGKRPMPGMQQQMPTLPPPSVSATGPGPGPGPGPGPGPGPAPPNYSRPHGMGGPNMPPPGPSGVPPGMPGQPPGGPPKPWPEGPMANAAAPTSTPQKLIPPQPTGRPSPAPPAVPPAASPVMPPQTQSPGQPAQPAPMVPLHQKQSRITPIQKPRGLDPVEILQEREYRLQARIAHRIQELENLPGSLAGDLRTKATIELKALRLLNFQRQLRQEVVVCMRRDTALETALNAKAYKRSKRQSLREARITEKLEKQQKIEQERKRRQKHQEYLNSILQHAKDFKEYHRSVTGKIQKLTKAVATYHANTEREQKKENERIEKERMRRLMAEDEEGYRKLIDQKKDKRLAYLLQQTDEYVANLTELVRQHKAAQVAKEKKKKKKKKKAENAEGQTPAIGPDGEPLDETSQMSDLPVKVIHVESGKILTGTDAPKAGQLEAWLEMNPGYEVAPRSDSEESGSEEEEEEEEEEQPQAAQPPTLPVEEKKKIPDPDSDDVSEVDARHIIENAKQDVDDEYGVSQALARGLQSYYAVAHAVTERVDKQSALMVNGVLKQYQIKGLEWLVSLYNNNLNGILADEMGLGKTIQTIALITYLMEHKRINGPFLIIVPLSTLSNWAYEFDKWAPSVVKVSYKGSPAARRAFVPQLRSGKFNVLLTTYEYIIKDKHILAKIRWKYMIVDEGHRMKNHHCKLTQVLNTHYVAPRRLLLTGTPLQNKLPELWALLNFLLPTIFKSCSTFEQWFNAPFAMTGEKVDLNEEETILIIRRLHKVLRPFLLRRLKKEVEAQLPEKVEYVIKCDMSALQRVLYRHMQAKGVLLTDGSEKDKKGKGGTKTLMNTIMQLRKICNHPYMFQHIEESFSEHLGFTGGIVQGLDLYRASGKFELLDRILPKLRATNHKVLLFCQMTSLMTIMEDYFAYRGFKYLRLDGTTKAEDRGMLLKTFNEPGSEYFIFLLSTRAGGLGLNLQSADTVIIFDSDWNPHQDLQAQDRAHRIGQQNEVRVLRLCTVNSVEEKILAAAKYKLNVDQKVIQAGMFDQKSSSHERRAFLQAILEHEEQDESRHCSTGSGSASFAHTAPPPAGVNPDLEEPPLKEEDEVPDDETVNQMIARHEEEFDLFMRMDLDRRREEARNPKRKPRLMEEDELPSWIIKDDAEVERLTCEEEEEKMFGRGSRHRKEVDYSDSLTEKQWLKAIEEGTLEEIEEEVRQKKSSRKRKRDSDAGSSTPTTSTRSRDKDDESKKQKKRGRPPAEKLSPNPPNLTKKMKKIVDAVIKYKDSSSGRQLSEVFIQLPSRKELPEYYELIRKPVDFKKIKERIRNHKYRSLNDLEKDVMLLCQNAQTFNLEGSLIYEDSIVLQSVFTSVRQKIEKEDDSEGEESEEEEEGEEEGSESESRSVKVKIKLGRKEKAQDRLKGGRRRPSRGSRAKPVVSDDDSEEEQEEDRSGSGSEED
Method in brief: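 24 h compound exposure, MV4-11; RIPA lysates → SDS-PAGE → NC membrane; anti-SMARCA2/BRM, anti-BRG1, β-actin loading control; LI-COR fluorescence read. DC50 and Dmax at 24 h reported as letter bins.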

[2] = molecular target: T2, SMARCA2 (Homo sapiens, UniProt P51531); assay: MSD SMARCA2 degradation in A549 cell line; details: 24 h; for Dmax: A549, A549 cells; for DC50: A549 cells, read-out: SMARCA2 MSD A549 degradation 24 h: Average external-Abs DC50
T2 sequence (P51531 whole entry): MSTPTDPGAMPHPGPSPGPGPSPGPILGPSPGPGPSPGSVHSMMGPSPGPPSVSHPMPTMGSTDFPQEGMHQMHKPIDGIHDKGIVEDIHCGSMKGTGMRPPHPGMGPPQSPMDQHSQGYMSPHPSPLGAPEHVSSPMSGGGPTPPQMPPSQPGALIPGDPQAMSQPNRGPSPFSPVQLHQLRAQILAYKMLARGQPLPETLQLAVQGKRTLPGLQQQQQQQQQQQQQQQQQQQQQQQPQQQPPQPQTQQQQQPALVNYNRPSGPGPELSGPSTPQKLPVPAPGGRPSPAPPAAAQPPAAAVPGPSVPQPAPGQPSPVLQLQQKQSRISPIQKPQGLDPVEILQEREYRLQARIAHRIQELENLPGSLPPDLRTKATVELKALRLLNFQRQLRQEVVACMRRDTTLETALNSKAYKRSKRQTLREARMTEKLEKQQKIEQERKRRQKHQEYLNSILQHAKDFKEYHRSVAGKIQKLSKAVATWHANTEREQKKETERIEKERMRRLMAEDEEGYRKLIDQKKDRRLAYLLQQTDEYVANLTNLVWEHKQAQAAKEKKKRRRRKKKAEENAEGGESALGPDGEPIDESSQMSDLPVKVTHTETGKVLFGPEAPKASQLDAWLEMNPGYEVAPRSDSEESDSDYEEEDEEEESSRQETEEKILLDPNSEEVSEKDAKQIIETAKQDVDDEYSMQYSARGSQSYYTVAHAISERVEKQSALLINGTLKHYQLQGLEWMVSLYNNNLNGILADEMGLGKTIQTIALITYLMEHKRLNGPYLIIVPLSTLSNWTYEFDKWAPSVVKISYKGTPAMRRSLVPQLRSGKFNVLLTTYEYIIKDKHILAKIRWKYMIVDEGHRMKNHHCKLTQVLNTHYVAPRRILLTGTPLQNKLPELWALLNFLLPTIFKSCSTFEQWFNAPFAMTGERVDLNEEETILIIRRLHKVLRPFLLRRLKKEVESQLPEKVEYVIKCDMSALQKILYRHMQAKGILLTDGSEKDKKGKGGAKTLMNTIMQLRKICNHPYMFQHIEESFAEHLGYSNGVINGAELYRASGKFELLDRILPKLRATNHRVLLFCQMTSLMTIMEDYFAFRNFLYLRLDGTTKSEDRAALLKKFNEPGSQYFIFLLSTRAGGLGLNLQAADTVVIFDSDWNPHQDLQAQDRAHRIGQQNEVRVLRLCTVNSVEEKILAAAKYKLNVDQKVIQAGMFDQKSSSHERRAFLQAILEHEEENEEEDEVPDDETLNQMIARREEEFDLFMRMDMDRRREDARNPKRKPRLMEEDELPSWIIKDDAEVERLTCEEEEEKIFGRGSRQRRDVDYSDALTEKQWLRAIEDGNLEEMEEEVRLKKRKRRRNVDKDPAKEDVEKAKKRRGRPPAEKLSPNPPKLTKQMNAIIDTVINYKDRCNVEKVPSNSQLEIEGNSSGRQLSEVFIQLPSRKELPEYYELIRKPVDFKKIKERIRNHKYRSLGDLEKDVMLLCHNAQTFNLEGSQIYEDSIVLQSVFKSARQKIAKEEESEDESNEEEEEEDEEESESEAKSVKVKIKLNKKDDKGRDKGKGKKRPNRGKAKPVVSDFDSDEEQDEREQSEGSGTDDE
Method in brief: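 A549 cells treated 24 h with compound, 3-fold series from 1000 nM. Lysates captured on MSD plates and SMARCA2 quantified with anti-SMARCA2 and SULFO-TAG secondary antibodies (electrochemiluminescence). DC50 and Dmax (% degradation at 24 h) reported as letter bins.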

[3] = molecular target: T2, SMARCA2; assay: SMARCA2 Western blot degradation in MV4-11 cells; parameters: SMARCA2/SMARCA4 protein degradation selectivity in MV4-11 cells; endogenous in cells; host or cells: MV4-11; details: for Dmax: MV4-11, MV4-11 cells, read-out: SMARCA2 MSD MV411 degradation 24 h: average Dmax %; for Dmax / DC50: 24 h; for DC50 / Selectivity in MV411: MV4-11 cells; for DC50: read-out: SMARCA2 MSD MV411 degradation 24 h: Mean external-Abs DC50; for Selectivity in MV411: SMARCA2/4 selectivity

| Compound | Dmax [1] | DC50 [1] | Dmax [2] | DC50 [2] | Dmax [3] | DC50 [3] | Selectivity in MV411 [3] |
| --- | --- | --- | --- | --- | --- | --- | --- |
| C#Cc1ccc(CNC(=O)[C@@H]2C[C@@H](O)CN2C(=O)[C@@H](NC(=O)N2CC3(CC(N4CCC(c5cnc(N6CCc7[nH]c8nnc(-c9ccccc9O)cc8c7[C@H]6C)nc5)CC4)C3)C2)C(C)(C)CCO)c(Cl)c1 (single isomer, unassigned) [I-317] | 70 to 90% | > 100 nM | > 90% | 10 to 50 nM | 70 to 90% | 1 to 10 nM | C (C (10-100 fold)) |
| C#Cc1cc(Cl)c(CNC(=O)[C@@H]2C[C@@H](O)CN2C(=O)[C@@H](NC(=O)[C@H]2CC3(C2)C[C@H](N2CCC(N4CCC(N5CCN6c7cc(-c8ccccc8O)nnc7NC[C@H]6C5)CC4)CC2)C3)C(C)(C)C)c(OC)c1 (single isomer, unassigned) [I-328] | < 50% | > 100 nM | < 50% | > 100 nM | < 50% | > 100 nM | D (D (<10 fold)) |
| C#Cc1cnc(CNC(=O)[C@@H]2C[C@@H](O)CN2C(=O)[C@@H](NC(=O)[C@H]2CC3(C2)C[C@H](N2CCC(N4CCC(N5CCN6c7cc(-c8ccccc8O)nnc7NC[C@H]6C5)CC4)CC2)C3)C(C)(C)C)c(OC)c1 (single isomer, unassigned) [I-330] | < 50% | > 100 nM | 50 to 70% | > 100 nM | 50 to 70% | > 100 nM | C (C (10-100 fold)) |
| C#Cc1ccc([C@H](C)NC(=O)[C@@H]2C[C@@H](O)CN2C(=O)[C@H](c2cc(OCCN3CCC(N4CCC(N5CCC(CN6CCN7c8cc(-c9ccccc9O)nnc8NC[C@H]7C6)CC5)CC4)CC3)no2)C(C)C)cc1 (single isomer, unassigned) [I-333] | 70 to 90% | 10 to 100 nM | > 90% | 10 to 50 nM | > 90% | < 1 nM | C (C (10-100 fold)) |
| C#Cc1ccc([C@H](C)NC(=O)[C@@H]2C[C@@H](O)CN2C(=O)[C@@H](c2cc(OCCN3CCC(N4CCC(N5CCC(CN6CCN7c8cc(-c9ccccc9O)nnc8NC[C@H]7C6)CC5)CC4)CC3)no2)C(C)C)cc1 (single isomer, unassigned) [I-334] | < 50% | > 100 nM | 50 to 70% | > 100 nM | < 50% | > 100 nM | D (D (<10 fold)) |
| C#Cc1ccc(CNC(=O)[C@@H]2C[C@@H](O)CN2C(=O)[C@H](NC(=O)N2CC3(CC(N4CCC(c5cnc(N6CCc7[nH]c8nnc(-c9ccccc9O)cc8c7[C@H]6C)nc5)CC4)C3)C2)C(C)(C)CCN2CCOCC2)cc1 (single isomer, unassigned) [I-337] | < 50% | > 100 nM | > 90% | > 100 nM | 70 to 90% | 10 to 100 nM | B (B (>100-500 fold)) |
| C#Cc1ccc(CNC(=O)[C@@H]2C[C@@H](O)CN2C(=O)[C@@H](NC(=O)N2CC3(CC(N4CCC(c5cnc(N6CCc7[nH]c8nnc(-c9ccccc9O)cc8c7[C@H]6C)nc5)CC4)C3)C2)C(C)(C)CCN2CCOCC2)cc1 (single isomer, unassigned) [I-338] | < 50% | > 100 nM | < 50% | > 100 nM | < 50% | > 100 nM | C (C (10-100 fold)) |
| C#Cc1ccc(CNC(=O)[C@@H]2C[C@@H](O)CN2C(=O)[C@@H](NC(=O)[C@H]2CC3(C2)C[C@H](N2CCC(N4CCC(N5CCN6c7cc(-c8ccccc8O)nnc7NC[C@H]6C5)CC4)CC2)C3)C(C)(C)CCO)cc1 (single isomer, unassigned) [I-364] | < 50% | > 100 nM | 70 to 90% | > 100 nM | 50 to 70% | 10 to 100 nM | B (B (>100-500 fold)) |
